In ChEMBL document CHEMBL1201862, “PubChem BioAssay data set” (2004):
Calls of active or inactive are those of the source.

Assays:
[1] = system: Streptococcus sp. 'group A'; test: Streptococcus pyogenes SK(-)GAS viability under kanamycin – luminescence, BacTiterGlo, confirmation, counter-screen for streptokinase expression inhibitor project, dose response (AID 1900); assay type: functional, organism-based
Streptokinase A = molecular target: T1, Streptokinase A (Streptococcus pyogenes serotype M1, UniProt P10520); test: viability-normalized secreted streptokinase activity reduction – plasminogen activation absorbance, OD405, dose response (AID 1914); assay type: functional, Streptococcus pyogenes M1 GAS;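 also: secreted streptokinase activity via plasminogen activation per viability signal from cell pellet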
T1 sequence (P10520 whole entry): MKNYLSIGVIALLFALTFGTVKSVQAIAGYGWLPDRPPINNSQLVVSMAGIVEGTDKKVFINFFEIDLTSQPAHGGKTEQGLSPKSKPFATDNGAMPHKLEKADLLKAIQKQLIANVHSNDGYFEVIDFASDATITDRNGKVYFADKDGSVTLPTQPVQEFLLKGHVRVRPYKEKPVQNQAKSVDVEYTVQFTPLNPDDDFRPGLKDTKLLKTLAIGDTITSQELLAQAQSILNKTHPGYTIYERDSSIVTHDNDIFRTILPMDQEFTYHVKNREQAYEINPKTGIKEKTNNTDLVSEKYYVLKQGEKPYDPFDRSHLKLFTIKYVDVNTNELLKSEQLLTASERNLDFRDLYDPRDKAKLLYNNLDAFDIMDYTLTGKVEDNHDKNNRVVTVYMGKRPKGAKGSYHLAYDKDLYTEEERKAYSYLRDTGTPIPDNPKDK

Streptococcus = test: GAS UMAA2166 growth inhibition – luminescence, BacTiterGlo, counter-screen for streptokinase expression inhibitor project, dose response (AID 1915); assay type: functional, organism-based;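 also: potency for reduction of bacterial viability or growth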
HEK293 = test: EBV LMP1 TES2 canonical NF-kB signalling blockers – cell-based, HEK293, luciferase, cherry-pick, dose response (AID 588343); assay type: functional; settings: Homo sapiens
[2] = molecular target: Dual specificity tyrosine-phosphorylation-regulated kinase 1A (Rattus norvegicus, UniProt Q63470); assay type: biochemical, Homo sapiens
[3] = viability loss in HeLa cells – cytotoxicity control for MgcRacGAP inhibitor project, dose response (AID 624300); assay type: functional
[4] = molecular target: T2, Rac GTPase-activating protein 1 (Homo sapiens, UniProt Q9H0H5); test: blockers of MgcRacGAP-driven Rac1 GTP hydrolysis – biochemical, ADP Hunter fluorescence, primary and confirmatory, confirmation (AID 624330); assay type: functional
T2 sequence (Q9H0H5 whole entry): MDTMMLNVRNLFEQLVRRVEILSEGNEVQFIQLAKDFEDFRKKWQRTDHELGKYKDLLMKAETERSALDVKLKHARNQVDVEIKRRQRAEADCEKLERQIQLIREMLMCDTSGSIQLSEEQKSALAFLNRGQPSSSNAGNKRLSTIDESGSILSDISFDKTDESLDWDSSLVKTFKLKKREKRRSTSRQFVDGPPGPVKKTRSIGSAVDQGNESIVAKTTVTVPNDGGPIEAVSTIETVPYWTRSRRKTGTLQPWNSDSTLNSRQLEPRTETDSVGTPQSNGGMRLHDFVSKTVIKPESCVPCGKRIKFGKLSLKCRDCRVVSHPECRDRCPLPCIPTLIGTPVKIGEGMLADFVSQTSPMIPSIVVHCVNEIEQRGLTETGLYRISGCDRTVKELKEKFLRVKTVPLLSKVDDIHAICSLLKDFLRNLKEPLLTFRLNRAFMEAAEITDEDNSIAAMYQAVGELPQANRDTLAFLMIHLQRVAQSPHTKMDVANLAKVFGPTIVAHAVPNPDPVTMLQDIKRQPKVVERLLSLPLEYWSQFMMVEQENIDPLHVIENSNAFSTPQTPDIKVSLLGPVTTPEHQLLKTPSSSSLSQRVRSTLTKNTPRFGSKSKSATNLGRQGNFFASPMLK

[5] = molecular target: Peroxisome proliferator-activated receptor gamma/Nuclear receptor coactivator 3 (Homo sapiens, UniProt P37231); test: (§1) TR-FRET dose response biochemical High Throughput Screening assay for agonists of the steroid receptor coactivator 3 (SRC-3) recruitment by the peroxisome proliferator-activated receptor gamma (PPAR gamma): non-selective agonists. [Related pubchem assays: 1301 (Confirmation screen.), 1048 (Primary screen.)]; assay type: functional
Large T antigen = Large T antigen (Simian virus 40, UniProt P03070); assay type: functional, Betapolyomavirus macacae;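 also: Confirmatory-stage PubChem screen for compounds that inhibit SV40 T antigen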
[6] = molecular target: Peroxisome proliferator-activated receptor gamma/Nuclear receptor coactivator 1 (Homo sapiens, UniProt P37231); test: as §1, with “1 (SRC-1)” for “3 (SRC-3)”, “assays (depositor defined):AID1300, AID1808, AID504735, AID631]” for “assays: 1301 (Confirmation screen.), 1048 (Primary screen.)]”; assay type: protein assay
[7] = molecular target: Peroxisome proliferator-activated receptor gamma/Nuclear receptor coactivator 2 (Homo sapiens, UniProt P37231); test: TR-FRET dose response biochemical High Throughput Screening assay for agonists of the steroid receptor coactivator 2 (SRC-2) recruitment by the peroxisome proliferator-activated receptor gamma (PPAR gamma): non-selective agonists. [Related pubchem assays: 1297, 1032 ]; assay type: functional
[8] = molecular target: T3, Histone-lysine N-methyltransferase NSD2 (Homo sapiens, UniProt O96028); assay type: biochemical
T3 sequence (O96028 whole entry): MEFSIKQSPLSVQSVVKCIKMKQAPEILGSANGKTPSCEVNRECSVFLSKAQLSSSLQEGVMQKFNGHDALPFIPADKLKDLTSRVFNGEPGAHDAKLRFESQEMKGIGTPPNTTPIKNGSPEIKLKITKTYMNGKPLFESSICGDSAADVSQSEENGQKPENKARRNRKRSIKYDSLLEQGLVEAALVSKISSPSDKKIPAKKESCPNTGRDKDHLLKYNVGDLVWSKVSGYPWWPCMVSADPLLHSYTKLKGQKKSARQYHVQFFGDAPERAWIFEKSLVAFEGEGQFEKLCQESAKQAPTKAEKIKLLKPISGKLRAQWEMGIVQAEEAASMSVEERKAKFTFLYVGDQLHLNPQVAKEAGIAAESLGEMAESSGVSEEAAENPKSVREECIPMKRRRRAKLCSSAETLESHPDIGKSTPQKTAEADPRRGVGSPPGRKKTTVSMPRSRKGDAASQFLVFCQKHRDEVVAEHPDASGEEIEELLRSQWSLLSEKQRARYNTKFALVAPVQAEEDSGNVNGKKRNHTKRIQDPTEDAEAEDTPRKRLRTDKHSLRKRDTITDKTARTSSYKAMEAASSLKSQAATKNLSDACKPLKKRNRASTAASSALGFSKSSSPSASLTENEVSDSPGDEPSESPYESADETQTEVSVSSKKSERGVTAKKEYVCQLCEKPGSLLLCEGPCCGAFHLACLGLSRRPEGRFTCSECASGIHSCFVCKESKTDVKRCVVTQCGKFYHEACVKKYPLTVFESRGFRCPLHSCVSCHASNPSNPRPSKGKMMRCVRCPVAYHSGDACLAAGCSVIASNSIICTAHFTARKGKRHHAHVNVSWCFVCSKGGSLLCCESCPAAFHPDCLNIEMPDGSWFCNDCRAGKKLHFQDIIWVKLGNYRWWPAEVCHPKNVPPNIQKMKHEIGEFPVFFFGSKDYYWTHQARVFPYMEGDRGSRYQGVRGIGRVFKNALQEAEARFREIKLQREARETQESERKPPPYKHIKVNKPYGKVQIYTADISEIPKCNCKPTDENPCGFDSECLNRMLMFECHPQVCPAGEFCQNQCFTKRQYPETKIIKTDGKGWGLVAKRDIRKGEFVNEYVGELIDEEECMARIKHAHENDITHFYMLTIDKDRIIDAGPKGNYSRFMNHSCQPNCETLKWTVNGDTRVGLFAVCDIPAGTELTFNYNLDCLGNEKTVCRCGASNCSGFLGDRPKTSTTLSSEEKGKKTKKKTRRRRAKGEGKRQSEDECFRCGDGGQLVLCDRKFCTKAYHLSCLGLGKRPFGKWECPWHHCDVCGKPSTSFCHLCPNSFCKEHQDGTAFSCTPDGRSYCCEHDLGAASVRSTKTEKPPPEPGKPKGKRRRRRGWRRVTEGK

[9] = reduction of Shn3 3'UTR-driven luciferase in osteoblasts – cell-based, Clone20 osteoblasts, firefly luciferase, cherry-picked, dose response (AID 624132); assay type: functional;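 also: firefly luciferase luminescence from reporter carrying the Shn3 3'UTR in osteoblasts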
[10] = molecular target: Glucose-6-phosphate 1-dehydrogenase (Homo sapiens, UniProt P11413); test: inhibition of Homo sapiens G6PD, dose series – biochemical, fluorescence, selectivity assay for P. falciparum G6PD inhibitor project, dose response (AID 504792); assay type: functional
[11] = loss of viability in HepG2 cells – cell-based, CellTiter-Glo, cherry-picked, cytotoxicity control for Shn3 inhibitor project, dose response (AID 624134); assay type: functional
[12] = molecular target: T4, Corticotropin-releasing factor receptor 2/Corticotropin-releasing factor-binding protein (Homo sapiens, UniProt P24387+Q13324); test: Dose Response confirmation of uHTS hits for small molecule antagonists of the CRF-binding protein and CRF-R2 receptor complex.; assay type: functional; settings: read-out: IC50_Mean
T4 sequence (Q13324 whole entry): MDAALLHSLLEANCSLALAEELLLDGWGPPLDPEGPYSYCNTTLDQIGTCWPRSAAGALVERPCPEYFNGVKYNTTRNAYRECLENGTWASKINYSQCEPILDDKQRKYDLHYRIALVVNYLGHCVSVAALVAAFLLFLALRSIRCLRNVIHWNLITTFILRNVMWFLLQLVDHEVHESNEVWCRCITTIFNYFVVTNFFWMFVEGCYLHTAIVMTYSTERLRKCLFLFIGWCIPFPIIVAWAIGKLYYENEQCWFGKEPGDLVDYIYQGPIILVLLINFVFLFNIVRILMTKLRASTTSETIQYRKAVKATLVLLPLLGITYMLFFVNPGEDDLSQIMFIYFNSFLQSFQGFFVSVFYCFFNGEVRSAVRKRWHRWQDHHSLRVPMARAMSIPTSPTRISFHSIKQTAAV
T4 sequence (P24387 whole entry): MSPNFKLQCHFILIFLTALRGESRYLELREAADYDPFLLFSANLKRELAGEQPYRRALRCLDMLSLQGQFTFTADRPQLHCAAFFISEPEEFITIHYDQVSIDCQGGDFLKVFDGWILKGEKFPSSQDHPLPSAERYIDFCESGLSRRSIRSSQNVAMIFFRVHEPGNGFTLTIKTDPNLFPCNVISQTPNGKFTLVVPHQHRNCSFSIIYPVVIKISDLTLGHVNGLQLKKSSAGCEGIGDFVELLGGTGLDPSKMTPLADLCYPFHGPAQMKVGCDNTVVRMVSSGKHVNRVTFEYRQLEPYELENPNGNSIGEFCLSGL

[13] = molecular target: T4, Corticotropin-releasing factor receptor 2/Corticotropin-releasing factor-binding protein; test: activators of CRF receptor 2 with binding protein – uHTS hits, confirmation (AID 602473); assay type: functional; settings: read-out: EC50_Mean
[14] = molecular target: T5, Type-1 angiotensin II receptor (Homo sapiens, UniProt P30556); test: antagonism of angiotensin II type 1 receptor – cell-based, uHTS hits, selectivity assay for APJ receptor antagonist project, dose response (AID 463214); assay type: functional;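 also: antagonist potency against angiotensin II stimulated AT1 response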
T5 sequence (P30556 whole entry): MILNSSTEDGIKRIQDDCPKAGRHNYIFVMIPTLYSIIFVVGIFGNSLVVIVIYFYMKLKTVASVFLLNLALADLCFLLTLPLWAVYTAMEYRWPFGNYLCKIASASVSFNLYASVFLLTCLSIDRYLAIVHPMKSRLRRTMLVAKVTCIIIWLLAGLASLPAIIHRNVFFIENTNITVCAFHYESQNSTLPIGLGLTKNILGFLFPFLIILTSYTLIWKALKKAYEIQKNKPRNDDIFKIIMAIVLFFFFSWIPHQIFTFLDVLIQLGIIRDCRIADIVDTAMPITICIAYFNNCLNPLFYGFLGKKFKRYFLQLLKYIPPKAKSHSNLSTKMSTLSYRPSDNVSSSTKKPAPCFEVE

Beta-galactosidase = Beta-galactosidase (Escherichia coli, UniProt Q8VNN2); test: PubChem AID 485352; assay type: functional
[15] = molecular target: T6, Heat shock factor protein 1 (Mus musculus, UniProt P38532); test: decrease of HSF1-responsive luciferase luminescence – cell-based, NIH3T3, dose retest, confirmation (AID 2382); assay type: functional;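 also: NIH3T3 fibroblasts with HSF1-driven luciferase reporter stressed by proteasome inhibitor MG132; luminescence from HSF1-driven luciferase expression after 8 hours of MG132 stress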
T6 sequence (P38532 whole entry): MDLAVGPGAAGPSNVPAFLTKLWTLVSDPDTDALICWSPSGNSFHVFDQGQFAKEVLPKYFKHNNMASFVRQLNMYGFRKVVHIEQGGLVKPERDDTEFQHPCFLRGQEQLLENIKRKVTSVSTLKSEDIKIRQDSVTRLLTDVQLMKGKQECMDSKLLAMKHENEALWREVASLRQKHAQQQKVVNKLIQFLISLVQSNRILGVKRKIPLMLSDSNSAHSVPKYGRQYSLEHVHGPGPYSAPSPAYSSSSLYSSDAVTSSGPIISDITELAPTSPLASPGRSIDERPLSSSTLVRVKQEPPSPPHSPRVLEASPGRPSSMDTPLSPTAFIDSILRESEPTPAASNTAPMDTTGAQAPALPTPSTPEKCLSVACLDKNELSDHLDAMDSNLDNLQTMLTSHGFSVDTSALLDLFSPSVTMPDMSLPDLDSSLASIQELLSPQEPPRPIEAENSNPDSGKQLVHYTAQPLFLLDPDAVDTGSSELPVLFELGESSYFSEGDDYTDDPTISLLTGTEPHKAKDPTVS

Peroxisome proliferator-activated receptor gamma/Nuclear receptor coactivator 2, sequence (P37231 whole entry): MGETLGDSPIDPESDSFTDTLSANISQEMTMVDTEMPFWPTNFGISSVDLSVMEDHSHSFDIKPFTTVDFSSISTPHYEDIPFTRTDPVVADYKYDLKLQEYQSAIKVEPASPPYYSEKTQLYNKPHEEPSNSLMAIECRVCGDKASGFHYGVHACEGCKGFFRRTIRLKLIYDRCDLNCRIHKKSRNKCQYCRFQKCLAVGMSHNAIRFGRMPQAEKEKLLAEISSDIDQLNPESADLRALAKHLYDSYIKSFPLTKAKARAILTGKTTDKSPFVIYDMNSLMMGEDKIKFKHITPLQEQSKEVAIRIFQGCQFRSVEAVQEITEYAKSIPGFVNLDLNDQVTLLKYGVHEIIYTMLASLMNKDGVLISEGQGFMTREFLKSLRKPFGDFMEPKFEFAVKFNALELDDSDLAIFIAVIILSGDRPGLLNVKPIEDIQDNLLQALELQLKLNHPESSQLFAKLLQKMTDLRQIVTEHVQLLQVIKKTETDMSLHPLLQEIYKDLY
Peroxisome proliferator-activated receptor gamma/Nuclear receptor coactivator 2, sequence (Q15596 whole entry, further chain): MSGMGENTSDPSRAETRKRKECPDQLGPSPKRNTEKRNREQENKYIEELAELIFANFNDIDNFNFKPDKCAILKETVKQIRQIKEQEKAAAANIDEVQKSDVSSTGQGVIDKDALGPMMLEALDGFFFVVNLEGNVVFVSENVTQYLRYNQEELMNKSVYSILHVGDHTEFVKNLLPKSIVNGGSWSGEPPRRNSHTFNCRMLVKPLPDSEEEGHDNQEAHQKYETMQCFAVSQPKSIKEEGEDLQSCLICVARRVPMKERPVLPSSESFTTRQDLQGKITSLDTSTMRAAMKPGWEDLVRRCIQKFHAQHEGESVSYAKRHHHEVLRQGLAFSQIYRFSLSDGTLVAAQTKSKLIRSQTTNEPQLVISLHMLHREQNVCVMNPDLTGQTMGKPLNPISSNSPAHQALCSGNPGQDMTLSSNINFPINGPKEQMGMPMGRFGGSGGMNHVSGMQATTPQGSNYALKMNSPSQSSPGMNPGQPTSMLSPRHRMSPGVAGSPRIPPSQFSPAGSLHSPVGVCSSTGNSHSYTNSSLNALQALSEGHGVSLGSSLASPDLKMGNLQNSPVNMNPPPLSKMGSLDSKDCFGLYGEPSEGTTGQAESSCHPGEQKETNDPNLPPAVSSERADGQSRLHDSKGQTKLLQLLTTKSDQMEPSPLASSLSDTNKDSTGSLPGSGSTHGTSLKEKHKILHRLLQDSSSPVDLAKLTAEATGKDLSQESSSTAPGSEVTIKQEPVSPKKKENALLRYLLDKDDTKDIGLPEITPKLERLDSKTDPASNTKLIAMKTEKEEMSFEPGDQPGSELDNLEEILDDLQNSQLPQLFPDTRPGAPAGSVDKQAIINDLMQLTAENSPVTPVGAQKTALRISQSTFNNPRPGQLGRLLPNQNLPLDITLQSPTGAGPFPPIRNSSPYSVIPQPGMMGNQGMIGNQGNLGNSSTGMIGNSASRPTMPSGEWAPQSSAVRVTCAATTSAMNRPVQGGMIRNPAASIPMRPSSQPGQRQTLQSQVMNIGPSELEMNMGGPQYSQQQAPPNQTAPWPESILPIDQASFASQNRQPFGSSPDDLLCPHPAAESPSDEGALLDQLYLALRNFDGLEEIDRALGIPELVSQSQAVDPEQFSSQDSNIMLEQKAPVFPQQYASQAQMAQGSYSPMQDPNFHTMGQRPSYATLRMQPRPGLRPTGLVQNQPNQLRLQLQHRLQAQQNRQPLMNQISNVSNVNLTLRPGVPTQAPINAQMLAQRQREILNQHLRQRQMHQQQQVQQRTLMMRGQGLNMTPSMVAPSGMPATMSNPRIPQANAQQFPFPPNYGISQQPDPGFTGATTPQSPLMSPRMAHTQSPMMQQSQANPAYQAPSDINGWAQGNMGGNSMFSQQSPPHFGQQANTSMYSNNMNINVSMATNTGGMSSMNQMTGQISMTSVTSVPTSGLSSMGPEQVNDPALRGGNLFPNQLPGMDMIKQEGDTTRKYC
Peroxisome proliferator-activated receptor gamma/Nuclear receptor coactivator 3, sequence (P37231 whole entry): as the sequence (P37231 whole entry) above
Peroxisome proliferator-activated receptor gamma/Nuclear receptor coactivator 3, sequence (Q9Y6Q9 whole entry, further chain): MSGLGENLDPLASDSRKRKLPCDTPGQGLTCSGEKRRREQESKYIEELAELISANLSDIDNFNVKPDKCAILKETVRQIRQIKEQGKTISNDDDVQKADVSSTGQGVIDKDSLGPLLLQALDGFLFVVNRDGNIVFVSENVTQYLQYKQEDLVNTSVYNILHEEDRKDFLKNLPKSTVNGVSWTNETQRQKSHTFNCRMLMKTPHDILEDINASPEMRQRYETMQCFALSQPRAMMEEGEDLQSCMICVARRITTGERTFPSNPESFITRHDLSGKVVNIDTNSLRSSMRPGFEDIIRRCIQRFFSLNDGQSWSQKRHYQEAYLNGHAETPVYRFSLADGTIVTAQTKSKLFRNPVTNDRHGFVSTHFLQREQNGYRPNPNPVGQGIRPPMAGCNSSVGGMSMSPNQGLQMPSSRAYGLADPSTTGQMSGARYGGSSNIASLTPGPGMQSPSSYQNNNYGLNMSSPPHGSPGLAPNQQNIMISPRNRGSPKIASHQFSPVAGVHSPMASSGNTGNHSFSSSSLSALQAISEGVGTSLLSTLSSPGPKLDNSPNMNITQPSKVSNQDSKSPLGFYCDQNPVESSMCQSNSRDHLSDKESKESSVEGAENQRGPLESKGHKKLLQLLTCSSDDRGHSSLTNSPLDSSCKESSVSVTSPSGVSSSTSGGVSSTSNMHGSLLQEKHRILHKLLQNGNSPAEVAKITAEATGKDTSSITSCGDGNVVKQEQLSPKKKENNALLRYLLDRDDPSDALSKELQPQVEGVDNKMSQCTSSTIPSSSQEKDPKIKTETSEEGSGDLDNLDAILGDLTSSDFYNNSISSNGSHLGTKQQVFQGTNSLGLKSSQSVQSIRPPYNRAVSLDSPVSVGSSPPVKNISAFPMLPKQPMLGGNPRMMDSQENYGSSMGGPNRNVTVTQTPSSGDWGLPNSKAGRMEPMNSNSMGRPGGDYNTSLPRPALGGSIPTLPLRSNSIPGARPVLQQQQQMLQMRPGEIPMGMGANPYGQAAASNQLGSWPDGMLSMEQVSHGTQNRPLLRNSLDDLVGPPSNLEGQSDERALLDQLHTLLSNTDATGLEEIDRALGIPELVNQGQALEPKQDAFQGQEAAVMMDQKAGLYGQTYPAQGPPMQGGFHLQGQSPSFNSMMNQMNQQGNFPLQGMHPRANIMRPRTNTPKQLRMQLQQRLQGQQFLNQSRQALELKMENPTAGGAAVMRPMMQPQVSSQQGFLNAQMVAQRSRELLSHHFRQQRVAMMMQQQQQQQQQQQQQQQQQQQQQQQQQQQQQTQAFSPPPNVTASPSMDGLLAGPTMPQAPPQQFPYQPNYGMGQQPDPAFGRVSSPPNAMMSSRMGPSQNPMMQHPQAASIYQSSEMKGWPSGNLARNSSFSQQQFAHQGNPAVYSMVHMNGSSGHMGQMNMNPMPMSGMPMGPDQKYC
Beta-galactosidase, sequence (Q8VNN2 whole entry): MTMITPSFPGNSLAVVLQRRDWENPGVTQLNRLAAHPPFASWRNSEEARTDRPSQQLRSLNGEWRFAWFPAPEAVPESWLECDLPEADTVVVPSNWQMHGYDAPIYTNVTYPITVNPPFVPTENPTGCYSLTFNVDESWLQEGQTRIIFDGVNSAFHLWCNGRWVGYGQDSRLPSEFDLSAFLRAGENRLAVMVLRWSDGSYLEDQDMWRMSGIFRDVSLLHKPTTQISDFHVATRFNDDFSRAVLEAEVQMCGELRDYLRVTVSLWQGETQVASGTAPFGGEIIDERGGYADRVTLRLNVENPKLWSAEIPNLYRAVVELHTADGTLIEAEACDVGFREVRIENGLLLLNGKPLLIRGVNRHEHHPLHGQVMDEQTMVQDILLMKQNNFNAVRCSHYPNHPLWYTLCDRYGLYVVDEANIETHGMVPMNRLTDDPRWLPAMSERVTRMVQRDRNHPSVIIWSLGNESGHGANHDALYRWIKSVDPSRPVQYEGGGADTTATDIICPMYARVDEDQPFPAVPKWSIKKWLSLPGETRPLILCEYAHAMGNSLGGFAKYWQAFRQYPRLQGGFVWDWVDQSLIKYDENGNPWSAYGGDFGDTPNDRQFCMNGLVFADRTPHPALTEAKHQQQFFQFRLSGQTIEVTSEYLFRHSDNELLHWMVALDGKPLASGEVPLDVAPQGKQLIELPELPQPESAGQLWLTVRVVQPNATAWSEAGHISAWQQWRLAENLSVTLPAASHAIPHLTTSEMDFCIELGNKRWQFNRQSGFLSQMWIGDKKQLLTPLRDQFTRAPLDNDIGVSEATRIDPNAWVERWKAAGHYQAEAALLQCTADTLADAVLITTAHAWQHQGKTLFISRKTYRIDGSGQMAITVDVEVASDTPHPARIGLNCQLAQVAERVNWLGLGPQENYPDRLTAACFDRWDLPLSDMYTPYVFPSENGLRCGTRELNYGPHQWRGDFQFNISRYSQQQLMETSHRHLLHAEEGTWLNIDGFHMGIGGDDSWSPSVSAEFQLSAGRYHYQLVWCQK

CCCCCCCCOC(=O)/C=C/c1c(C)nc(O)nc1O
EC50 [1]: 1.76 µM (active) | EC50 (Streptokinase A): 2.38 µM (active) | EC50 (Streptococcus): > 150 µM (not active) | AC50 (HEK293): 2.59 µM (active)

Cc1ccnc(Nc2nc(-c3ccc(O)c(O)c3)cs2)c1
AC50 [2]: 10.1 µM (active) | CC50 [3]: 69.5 µM (active) | IC50 [4]: 41.3 µM (active)

CC1=NOC(=O)/C1=C\c1ccc(-c2ccccc2Br)o1
EC50 [5]: > 79.4 µM (not active) | IC50 (Large T antigen): 16.4 µM (active) | EC50 [6]: 9.24 µM (active) | EC50 [7]: 5.02 µM (active) | AC50 [8]: > 20 µM (inactive) | AC50 [9]: 6.48 µM (active) | IC50 [10]: > 80 µM (inactive) | AC50 [11]: > 70 µM (inactive)

NC(Cc1ccc(O)cc1)C(=O)NN=Cc1ccc(N(CCCl)CCCl)cc1 (stereo unspecified)
IC50 [12]: > 47.1 µM (inactive) | EC50 [13]: > 53 µM (inactive) | AC50 (HEK293): 31.4 µM (active)

COc1ccc(C(=O)CNc2ccccc2CO)cc1
IC50 [14]: 26.1 µM (not active) | EC50 (Beta-galactosidase): > 40 µM (inactive)

COCCNC(=O)c1ccc2c(c1)nc(C)n2-c1cccc(F)c1
AC50 [2]: 98.8 µM (active)

Cn1c(=O)cc(SCC(=O)N2CCN(C(=O)c3ccco3)CC2)c2ccccc21
EC50 [5]: > 79.4 µM (not active) | EC50 [6]: > 79.4 µM (inactive) | EC50 [7]: > 79.4 µM (not active) | EC50 [15]: > 195 µM (not active)

Cc1[nH][nH]c(=O)c1N=Nc1ccccc1Cl
AC50 [2]: 28.9 µM (active)
